{
  "source": "patent US20090087420A1",
  "about": "“STABLE SOLUTION OF REDUCED COENZYME Q” (Kaneka Corporation, priority 2001, published 2009)",
  "experiment": "Oxidation stability of reduced coenzyme Q10 solubilized with a surfactant during air storage",
  "format": "physicochemical",
  "settings": "for period of stable storage: 0.05% by weight reduced coenzyme Q10, air storage at 23° C. (FIG. 4)",
  "description": "A solution of reduced coenzyme Q10 using a surfactant was prepared by the method described below, and the oxidation stability under storage was evaluated. As the surfactant, Polysolvate 80 (Tween 80) or polyoxyethylene hardened castor oil (HCO 60) was used, and an aqueous solution of 1% by weight or 0.1% by weight of the surfactant was prepared. Then, the reduced coenzyme Q10 was added to the aqueous solution so that the final concentration of the solution was 0.05% by weight. […] In FIG. 4, each value is an average with n=2. […] The results of this test indicate that with a surfactant concentration of 0.1% by weight, the reduced coenzyme Q10 can be stably stored at 23° C. for about 1 month. […] Therefore, when preparing a solution or emulsion with a surfactant, the concentration of the surfactant used is decreased to prepare a solution which can be stored for a longer period of time. A solution or emulsion with 1% by weight or more of a surfactant can be used under conditions in which the solution or emulsion is prepared before use, or the solution or emulsion is stored for a short period or stored in an airtight condition such as a completely anaerobic condition.",
  "data": [
    {"smiles": "COc1c(O)c(C)c(C/C=C(\\C)CC/C=C(\\C)CC/C=C(\\C)CC/C=C(\\C)CC/C=C(\\C)CC/C=C(\\C)CC/C=C(\\C)CC/C=C(\\C)CC/C=C(\\C)CCC=C(C)C)c(O)c1OC", "note": "[reduced coenzyme Q10]", "values": [
      {"measurement": "period of stable storage", "setting": "surfactant (Tween 80 or HCO 60) concentration 0.1% by weight", "value": "about 1 month"},
      {"measurement": "period of stable storage", "setting": "surfactant (Tween 80 or HCO 60) concentration 1% by weight", "value": 1, "unit": "week"},
      {"measurement": "oxidation after the stable period (in words)", "setting": "surfactant concentration 1% by weight, after 1 week of air storage at 23° C.", "value": "rapidly oxidized"}
    ]}
  ]
}
